Assay results reported in patent publication US20160128990A1, “METHODS OF USING RIFAXIMIN IN POSITION EMISSION TOMOGRAPHY (PET) SCANS” (Salix Pharmaceuticals, Ltd, priority 2013, published 2016).

Experiments:
Type in all cases: in vivo, human
[1] = tested on: physiologic FDG uptake in the intestinal tract; assay: PET-CT scan study of intestinal FDG uptake after rifaximin pre-treatment (Example 1)
Procedure: (§1) This example relates to a study to determine whether an oral antibiotic, rifaximin, administered prior to PET-CT scan can reduce physiologic FDG uptake in the intestinal tract. Thirty (30) patients scheduled for clinically-indicated PET-CT scans were enrolled to receive rifaximin 550 mg twice daily (BID) for two days prior to their scans. Each patient had their prior scheduled PET-CT used as control; that is, their prior PET-CT scan was evaluated as a pre-treatment baseline for intestinal FDG uptake (paired controls). The PET-CT scans of a randomly-selected cohort of 90 patients also scheduled for clinically-indicated PET-CT during the same time period were also used as controls (independent controls). All images were stripped of identifying data, and SUVMax (maximum-pixel-value standardized uptake value) and SUVAvg (average standardized uptake value) for all scans were measured by a radiologist blinded to treatment/control status and normalized to liver SUV, which was selected as the reference for normal tissue activity. A qualitative score of colonic uptake (0-4) was also assessed. Statistical analysis was performed by comparing mean SUV cecum/liver by paired t-test (pre & post) or unpaired t-test (treated & controls).

[2] = tested on: physiologic FDG uptake in the intestinal tract; assay: PET-CT scan studies of intestinal FDG uptake with other rifaximin regimens (Examples 2-6)
Procedure: Patients scheduled for clinically-indicated PET-CT scan are administered rifaximin 550 mg twice daily (BID) for five days prior to their scans. Each patient has their prior scheduled PET-CT used as control; that is, their prior PET-CT scan is evaluated as a pre-treatment baseline for intestinal FDG uptake (paired controls). The PET-CT scans of a randomly-selected cohort of patients also scheduled for clinically-indicated PET-CT during the same time period are used as independent controls. Cecal SUVMax (maximum-pixel-value standardized uptake value) and SUVAvg (average standardized uptake value) for all scans are measured by a radiologist blinded to treatment/control status and normalized to liver SUV, which is selected as the reference for normal tissue activity. A qualitative score of colonic uptake (0-4) is also assessed. Statistical analysis was performed by comparing mean SUV cecum/liver by paired t-test (pre & post) or unpaired t-test (treated & controls). The effect of rifaximin on a global measure of colonic SUV is also measured. Patients scheduled for clinically-indicated PET-CT scan are administered rifaximin 550 mg twice daily (BID) for seven days prior to their scans. Each patient has their prior scheduled PET-CT used as control; that is, their prior PET-CT scan is evaluated as a pre-treatment baseline for intestinal FDG uptake (paired controls). The PET-CT scans of a randomly-selected cohort of patients also scheduled for clinically-indicated PET-CT during the same time period are used as independent controls. Cecal SUVMax (maximum-pixel-value standardized uptake value) and SUVAvg (average standardized uptake value) for all scans are measured by a radiologist blinded to treatment/control status and normalized to liver SUV, which is selected as the reference for normal tissue activity. A qualitative score of colonic uptake (0-4) is also assessed. Statistical analysis was performed by comparing mean SUV cecum/liver by paired t-test (pre & post) or unpaired t-test (treated & controls). The effect of rifaximin on a global measure of colonic SUV is also measured. Patients scheduled for clinically-indicated PET-CT scan are administered rifaximin 550 mg twice daily (BID) for between 48 hours to five days prior to their scans. Each patient has their prior scheduled PET-CT used as control; that is, their prior PET-CT scan is evaluated as a pre-treatment baseline for intestinal FDG uptake (paired controls). […] Cecal SUVMax (maximum-pixel-value standardized uptake value) and SUVAvg (average standardized uptake value) for all scans are measured by a radiologist blinded to treatment/control status and normalized to liver SUV, which is selected as the reference for normal tissue activity. A qualitative score of colonic uptake (0-4) is also assessed. […] The effect of rifaximin on a global measure of colonic SUV is also measured. […] Each patient has their prior scheduled PET-CT used as control; that is, their prior PET-CT scan is evaluated as a pre-treatment baseline for intestinal FDG uptake (paired controls). […] Cecal SUVMax (maximum-pixel-value standardized uptake value) and SUVAvg (average standardized uptake value) for all scans are measured by a radiologist blinded to treatment/control status and normalized to liver SUV, which is selected as the reference for normal tissue activity. A qualitative score of colonic uptake (0-4) is also assessed. […]

[3] = Adverse events in the rifaximin-treated group (Example 1); details: rifaximin 550 mg BID for two days, 30 patients
Procedure: as §1

With `CO[C@H]1/C=C/O[C@@]2(C)Oc3c(C)c(O)c4c(O)c(c5c(nc6cc(C)ccn65)c4c3C2=O)NC(=O)/C(C)=C\C=C\[C@H](C)[C@H](O)[C@@H](C)[C@@H](O)[C@@H](C)[C@H](OC(C)=O)[C@@H]1C` [rifaximin, (2S,16Z,18E,20S,21S,22R, 23R,24R,25S,26S,27S,28E)-5,6,21,23,25 Pentahydroxy-27-methoxy-2,4,11,16,20,22,24,26-octamethyl-2,7-(epoxypentadeca-(1,11,13)trienimino)benzofuro(4,5-e)pyrido(1,2,-a)benzimidazole-1,15(2H)-dione,25-acetate] as the molecule, how does the “OR for overall colonic SUV score <1” value [1] read?
The value was 3.8.

What about the “patients with no major change in cecal SUVmax/liver ratio after rifaximin” value [1] of the same molecule?
Its value is 14%.

And the “scans with overall colonic SUV score <1” value [1]?
Its value is 53%.

And the “difference (reduction) in cecal SUVmax / FDG activity in the cecum between pre- and post-rifaximin images” value ([1]; 550 mg BID for two days, paired pre-rifaximin scans, p=0.002)?
The value was 26%.

What about the “mean cecal SUVMax in patients whose SUVMax was >2 in their prior scan” value ([1]; 550 mg, 48 h) of the same molecule?
Its value is 3.4.

What about the “cecal SUVmax levels in patients with high baseline levels” value ([1]; after 2 days of rifaximin pre-treatment) of the same molecule?
Its value is “significantly lower levels”.

And the “patients with higher cecal SUVmax/liver ratio post-rifaximin” value ([1]; patients (n=27) with cecal SUVmax/liver ratio >2 in pre-rifaximin scans, 2/27)?
Its value is 7%.

And the “patients with lower cecal SUVmax/liver ratio after rifaximin” value ([1]; patients (n=27) with cecal SUVmax/liver ratio >2 in pre-rifaximin scans, 21/27, p=0.0005)?
The value was 78%.

What about the “patients with down-grading of FDG signal intensity (overall colonic SUV signal)” value ([1]; patients with an initial high cecal SUVMax, FIG. 4) of the same molecule?
The value was 80%.

And the “Normalized (mean) cecal SUVAvg” value ([1]; post-rifaximin scan, 550 mg BID two days, 2.0 without rifaximin, p=0.02 paired t-test)?
Its value is 1.6.

And the “Mean colon SUVmax” value ([1]; post-rifaximin scan, 550 mg BID two days, pre-rifaximin 4.0, p=0.7)?
The value was 3.8.

What about the “distribution of overall colonic SUV grades” value ([1]; post-rifaximin scans, score 0-4 by blinded reader, FIG. 4) of the same molecule?
The value was “left-shift in the distribution of colonic SUV grades from higher to lower grades”.

What about the “mean cecal SUVMax, rifaximin-treated patients vs random control scans” value ([1]; random control scans mean 4.2, no significant difference, p=0.2 unpaired t-test) of the same molecule?
The value was 3.4.

And the “FDG uptake compared to pre-rifaximin scan” value ([1]; rifaximin for 2 days prior to PET-CT scans)?
The value was “significant reduction”.

What about the “qualitative score of whole colonic uptake (0-4), mean” value ([1]; rifaximin pre-treated group, reduced from 2.3, p=0.07) of the same molecule?
Its value is 1.8.

And the “overall percentage of patients with grade of colonic FDG intensity >1” value ([1]; with rifaximin compared to without rifaximin, FIG. 4)?
The value was “lower”.

And the “FDG uptake compared to pre-rifaximin scan” value ([2]; Example 2: 550 mg BID for five days prior to PET-CT scans)?
Its value is “significant reduction”.

And the “FDG uptake compared to pre-rifaximin scan” value ([2]; Example 3: 550 mg BID for seven days prior to PET-CT scans)?
The value was “significant reduction”.

What about the “FDG uptake compared to pre-rifaximin scan” value ([2]; Example 4: 550 mg BID for between 48 hours to 5 days prior to PET-CT scans) of the same molecule?
The value was “significant reduction”.

And the “FDG uptake compared to pre-rifaximin scan” value ([2]; Example 5: 1100 mg per day for 48 hours to seven days prior to PET-CT scans)?
Its value is “significant reduction”.

And the “FDG uptake compared to pre-rifaximin scan” value ([2]; Example 6: solid dispersion with about 10 mg to about 100 mg rifaximin, once per day up to TID, 48 hours to seven days prior to PET-CT scans)?
Its value is “significant reduction”.

What about the adverse events [3] of the same molecule?
The adverse events was “No adverse events were reported”.
